Experimental data as given in PubChem BioAssay AID1963432 (Molecular Pharmacology Branch, DTP, NCI, 2024).

Test system: SYO-1 complex spheroid growth, percent test/control
Experiment: Anticancer human tumor SYO-1 cell line growth inhibition [Asc];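 note: compound exposure lasted 7 days after spheroids grew 3 days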;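 for viability, T/C: 100% = DMSO vehicle control viability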
Conditions: for IC50: curve of first compound; for viability, T/C: stronger effect = lower value
Method in brief: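 Concentration series start at each agent's clinical Cmax, or at 10 microM when none is established, and drop in half-log steps; agents are applied alone or together to complex spheroids built with HUVEC and hMSC.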

[1] = second compound 0.0316 µM, first compound 0.0316 µM
[2] = second compound 0.0316 µM, first compound 0.1 µM
[3] = second compound 0.0316 µM, first compound 0.316 µM
[4] = second compound 0.0316 µM, first compound 1 µM
[5] = second compound 0.0316 µM, first compound 3.16 µM
[6] = second compound 0.0316 µM, first compound 10 µM
[7] = second compound 0.1 µM, first compound 0.0316 µM
[8] = second compound 0.1 µM, first compound 0.1 µM
[9] = second compound 0.1 µM, first compound 0.316 µM
[10] = second compound 0.1 µM, first compound 1 µM
[11] = second compound 0.1 µM, first compound 3.16 µM
[12] = second compound 0.1 µM, first compound 10 µM
[13] = second compound 0.316 µM, first compound 0.0316 µM
[14] = second compound 0.316 µM, first compound 0.1 µM
[15] = second compound 0.316 µM, first compound 0.316 µM
[16] = second compound 0.316 µM, first compound 1 µM
[17] = second compound 0.316 µM, first compound 3.16 µM
[18] = second compound 0.316 µM, first compound 10 µM
[19] = second compound 1 µM, first compound 0.0316 µM
[20] = second compound 1 µM, first compound 0.1 µM
[21] = second compound 1 µM, first compound 0.316 µM
[22] = second compound 1 µM, first compound 1 µM
[23] = second compound 1 µM, first compound 3.16 µM
[24] = second compound 1 µM, first compound 10 µM
[25] = second compound 3.16 µM, first compound 0.0316 µM
[26] = second compound 3.16 µM, first compound 0.1 µM
[27] = second compound 3.16 µM, first compound 0.316 µM
[28] = second compound 3.16 µM, first compound 1 µM
[29] = second compound 3.16 µM, first compound 3.16 µM
[30] = second compound 3.16 µM, first compound 10 µM
[31] = second compound 10 µM, first compound 0.0316 µM
[32] = second compound 10 µM, first compound 0.1 µM
[33] = second compound 10 µM, first compound 0.316 µM
[34] = second compound 10 µM, first compound 1 µM
[35] = second compound 10 µM, first compound 3.16 µM
[36] = second compound 10 µM, first compound 10 µM

C#Cc1c(F)ccc2cc(O)cc(-c3ncc4c(N5CC6CCC(C5)N6)nc(OCC56CCCN5CC(F)C6)nc4c3F)c12 (stereo unspecified) + Cc1c(S(C)(=O)=O)c(-c2cc(F)cc(N3CCN(c4ccc(NS(=O)(=O)c5ccc(NC(CCN6CCC(C(=O)OCCCP(=O)(O)O)CC6)CSc6ccccc6)c(S(=O)(=O)C(F)(F)F)c5)cc4)CC3)c2)c(-c2ccc(Cl)cc2)n1C(C)C
IC50 (second compound 0.0316 µM): > 10000 nM | IC50 (second compound 0.1 µM): > 10000 nM | IC50 (second compound 0.316 µM): > 10000 nM | IC50 (second compound 1 µM): > 10000 nM | IC50 (second compound 3.16 µM): > 10000 nM | IC50 (second compound 10 µM): > 10000 nM | viability, T/C [1]: 93.6% | viability, T/C [2]: 101% | viability, T/C [3]: 89.2% | viability, T/C [4]: 99.9% | viability, T/C [5]: 102% | viability, T/C [6]: 99.3% | viability, T/C [7]: 92.4% | viability, T/C [8]: 92.6% | viability, T/C [9]: 90.6% | viability, T/C [10]: 99.4% | viability, T/C [11]: 101% | viability, T/C [12]: 90.8% | viability, T/C [13]: 93.8% | viability, T/C [14]: 85.2% | viability, T/C [15]: 91% | viability, T/C [16]: 102% | viability, T/C [17]: 99.5% | viability, T/C [18]: 87% | viability, T/C [19]: 92.7% | viability, T/C [20]: 86.6% | viability, T/C [21]: 88.2% | viability, T/C [22]: 96.9% | viability, T/C [23]: 96.1% | viability, T/C [24]: 87% | viability, T/C [25]: 83.9% | viability, T/C [26]: 84.5% | viability, T/C [27]: 88.8% | viability, T/C [28]: 92.3% | viability, T/C [29]: 85.8% | viability, T/C [30]: 84.1% | viability, T/C [31]: 78.2% | viability, T/C [32]: 76.9% | viability, T/C [33]: 81.1% | viability, T/C [34]: 97.5% | viability, T/C [35]: 75.8% | viability, T/C [36]: 68.3%

NC1CCC(NC2CC2c2ccccc2)CC1 (stereo unspecified) + CCN1C(C(=O)NC23CCC(C(=O)O)(CC2)CC3)C(c2cccc(Cl)c2F)C2(C(=O)Nc3cc(Cl)ccc32)C12CCCCC2
IC50 (second compound 0.00949 µM): > 100 nM | IC50 (second compound 0.03 µM): > 100 nM | IC50 (second compound 0.0949 µM): > 100 nM | IC50 (second compound 0.3 µM): < 0.316 nM | IC50 (second compound 0.949 µM): < 0.316 nM | IC50 (second compound 3 µM): < 0.316 nM | viability, T/C (second compound 0.00949 µM, first compound 0.000316 µM): 102% | viability, T/C (second compound 0.00949 µM, first compound 0.001 µM): 96.7% | viability, T/C (second compound 0.00949 µM, first compound 0.00316 µM): 88% | viability, T/C (second compound 0.00949 µM, first compound 0.01 µM): 88% | viability, T/C (second compound 0.00949 µM, first compound 0.0316 µM): 94.2% | viability, T/C (second compound 0.00949 µM, first compound 0.1 µM): 91.1% | viability, T/C (second compound 0.03 µM, first compound 0.000316 µM): 98% | viability, T/C (second compound 0.03 µM, first compound 0.001 µM): 96.8% | viability, T/C (second compound 0.03 µM, first compound 0.00316 µM): 88.9% | viability, T/C (second compound 0.03 µM, first compound 0.01 µM): 84.6% | viability, T/C (second compound 0.03 µM, first compound 0.0316 µM): 85.9% | viability, T/C (second compound 0.03 µM, first compound 0.1 µM): 89.5% | viability, T/C (second compound 0.0949 µM, first compound 0.000316 µM): 84.9% | viability, T/C (second compound 0.0949 µM, first compound 0.001 µM): 74.4% | viability, T/C (second compound 0.0949 µM, first compound 0.00316 µM): 57.8% | viability, T/C (second compound 0.0949 µM, first compound 0.01 µM): 53.4% | viability, T/C (second compound 0.0949 µM, first compound 0.0316 µM): 55.2% | viability, T/C (second compound 0.0949 µM, first compound 0.1 µM): 51.7% | viability, T/C (second compound 0.3 µM, first compound 0.000316 µM): 18.6% | viability, T/C (second compound 0.3 µM, first compound 0.001 µM): 18.2% | viability, T/C (second compound 0.3 µM, first compound 0.00316 µM): 6.03% | viability, T/C (second compound 0.3 µM, first compound 0.01 µM): 8.44% | viability, T/C (second compound 0.3 µM, first compound 0.0316 µM): 13.7% | viability, T/C (second compound 0.3 µM, first compound 0.1 µM): 11.2% | viability, T/C (second compound 0.949 µM, first compound 0.000316 µM): 1.71% | viability, T/C (second compound 0.949 µM, first compound 0.001 µM): 2.22% | viability, T/C (second compound 0.949 µM, first compound 0.00316 µM): 1.78% | viability, T/C (second compound 0.949 µM, first compound 0.01 µM): 1.87% | viability, T/C (second compound 0.949 µM, first compound 0.0316 µM): 1.95% | viability, T/C (second compound 0.949 µM, first compound 0.1 µM): 1.33% | viability, T/C (second compound 3 µM, first compound 0.000316 µM): 1.21% | viability, T/C (second compound 3 µM, first compound 0.001 µM): 1.53% | viability, T/C (second compound 3 µM, first compound 0.00316 µM): 2.09% | viability, T/C (second compound 3 µM, first compound 0.01 µM): 1.25% | viability, T/C (second compound 3 µM, first compound 0.0316 µM): 1.49% | viability, T/C (second compound 3 µM, first compound 0.1 µM): 1.44%

O=C(c1cc(Cc2n[nH]c(=O)c3ccccc23)ccc1F)N1CCN(C(=O)C2CC2)CC1 + Cc1c(S(C)(=O)=O)c(-c2cc(F)cc(N3CCN(c4ccc(NS(=O)(=O)c5ccc(NC(CCN6CCC(C(=O)OCCCP(=O)(O)O)CC6)CSc6ccccc6)c(S(=O)(=O)C(F)(F)F)c5)cc4)CC3)c2)c(-c2ccc(Cl)cc2)n1C(C)C
IC50 (second compound 0.0316 µM): 1840 nM | IC50 (second compound 0.1 µM): 1850 nM | IC50 (second compound 0.316 µM): 1630 nM | IC50 (second compound 1 µM): 1640 nM | IC50 (second compound 3.16 µM): 1170 nM | IC50 (second compound 10 µM): 613 nM | viability, T/C [1]: 106% | viability, T/C [2]: 90.1% | viability, T/C [3]: 96.5% | viability, T/C [4]: 85.1% | viability, T/C [5]: 18.6% | viability, T/C [6]: 4.21% | viability, T/C [7]: 105% | viability, T/C [8]: 93.3% | viability, T/C [9]: 89.7% | viability, T/C [10]: 92.5% | viability, T/C [11]: 13.1% | viability, T/C [12]: 3.38% | viability, T/C [13]: 95.6% | viability, T/C [14]: 92% | viability, T/C [15]: 95.7% | viability, T/C [16]: 82.2% | viability, T/C [17]: 6.13% | viability, T/C [18]: 2.3% | viability, T/C [19]: 89.7% | viability, T/C [20]: 108% | viability, T/C [21]: 87.2% | viability, T/C [22]: 84.9% | viability, T/C [23]: 4.13% | viability, T/C [24]: 1.66% | viability, T/C [25]: 93.4% | viability, T/C [26]: 88.7% | viability, T/C [27]: 83.9% | viability, T/C [28]: 57.7% | viability, T/C [29]: 2.51% | viability, T/C [30]: 1.72% | viability, T/C [31]: 83.7% | viability, T/C [32]: 81.1% | viability, T/C [33]: 69.8% | viability, T/C [34]: 35.9% | viability, T/C [35]: 2.29% | viability, T/C [36]: 2.09%
